{
  "source": "PubChem BioAssay AID624061",
  "about": "(Southern Research Specialized Biocontainment Screening …, 2012)",
  "test_system": "E. coli K5, bacterial growth",
  "assay": "E. coli K5 growth effect of capsule formation inhibitors, K5 capsule type, follow-up screen (AID 624061)",
  "settings": "stronger effect = lower value",
  "data": [
    {"smiles": "CCOc1ccc(-c2cc(NC(=O)c3c(F)cccc3F)c(C(=O)O)s2)cc1", "values": [
      {"measurement": "bacterial growth", "setting": "at 100 µM", "result": 109, "unit": "%"},
      {"measurement": "bacterial growth", "setting": "growth, at 50 µM", "result": 106, "unit": "%"}
    ]}
  ]
}
